≈ marks a conversion by molar mass, not a printed value.

Type in all cases: cell-based
Assay [1] relates to Staphylococcus aureus Terajima (IID 670). As to the kind of experiment: MIC, Experiment 1. The conditions noted are these: IID670, S. aureus Terajima (IID 670), Gram +, read-out: Min. inhib. concentr. (MIC). How it is done: (§1) The compounds of the present invention (B, E, G, H, M, N, O, P and Q) were each dissolved in dimethylsulfoxide to prepare a solution of 5000 μg/ml in concentration. The compounds of the present invention (I, J and K) and the known compound (Y) were each dissolved in sterilized distilled water to prepare a solution of 5000 μg/ml in concentration. Each solution was diluted with sterilized distilled water to prepare a standard solution with a concentration of each test compound: 1000 μg/ml. The test was carried out by a method as appointed by Japan Society of Chemotherapy [cf. Chemotherapy, 29, 76-79 (1981), TOKYO].
(§2) As to Streptococcus pneumoniae and Streptococcus pyogenes, Brain heart infusion broth (manufactured by DIFCO) was used as the medium for the preculture thereof, and a heart infusion agar medium containing 5% defibrinated horse blood (manufactured by Nissui Seiyaku K. K., Japan) was used as the medium for the measurement of minimum inhibitory concentration (MIC). As to other microorganisms, a sensitivity test broth (manufactured by Nissui Seiyaku K. K.) was used as the medium for the preculture thereof, and a sensitivity test agar medium (manufactured by Nissui Seiyaku K. K.) was used as the medium for the measurement of MIC.

Assay [2] has as its system Acinetobacter calcoaceticus Ac 54. The assay can be described thus: MIC, Experiment 1. Conditions: AC54, A. calcoaceticus Ac 54, Gram -, read-out: Min. inhib. concentr. (MIC). The protocol: as §1, §2
Assay [3] concerns Escherichia coli NIHJ JC-2. The assay can be described thus: MIC, Experiment 1. The conditions noted are these: NIHJJC2, E. coli NIHJ JC-2, Gram -, read-out: Min. inhib. concentr. (MIC). The protocol: as §1, §2
Assay [4] deals with Staphylococcus aureus FDA 209P JC-1. As to the kind of experiment: MIC, Experiment 1. The conditions noted are these: FDA209P, S. aureus FDA 209P JC-1, Gram +, read-out: Min. inhib. concentr. (MIC). The protocol:
as §1, §2

Assay [5] deals with Klebsiella pneumoniae PCI-602. As to the kind of experiment: MIC, Experiment 1. The conditions noted are these: PCI602, K. pneumoniae PCI-602, Gram -, read-out: Min. inhib. concentr. (MIC). The protocol:
as §1, §2

Assay [6] deals with Staphylococcus aureus Cowan I (IID 975). The assay can be described thus: MIC, Experiment 1. Conditions: IID975, S. aureus Cowan I (IID 975), Gram +, read-out: Min. inhib. concentr. (MIC). The protocol: as §1, §2
The test system of assay [7] is Pseudomonas aeruginosa NCTC 10490. As to the kind of experiment: MIC, Experiment 1. Conditions: NCTC10490, P. aeruginosa NCTC 10490, Gram -, read-out: Min. inhib. concentr. (MIC). The protocol: as §1, §2
In a further assay the test system is Bacillus cereus IAM 1029. As to the kind of experiment: MIC, Experiment 1. Conditions: IAM1029, B. cereus IAM 1029, Gram +, read-out: Min. inhib. concentr. (MIC). The protocol: as §1, §2
In assay [8] the test system is Streptococcus pneumoniae IID 554. The assay can be described thus: MIC, Experiment 1. Conditions: IID554, S. pneumoniae IID 554, Gram +, agar with 5% defibrinated horse blood, read-out: Min. inhib. concentr. (MIC). How it is done: as §1, §2
The subject of assay [9] is Bacillus subtilis ATCC 6633. The assay can be described thus: MIC, Experiment 1. Conditions: ATCC6633, B. subtilis ATCC 6633, Gram +, read-out: Min. inhib. concentr. (MIC). How it is done: as §1, §2
The subject of assay [10] is Staphylococcus aureus ATCC 9144. As to the kind of experiment: MIC, Experiment 1. Conditions: ATCC9144, S. aureus ATCC 9144, Gram +, read-out: Min. inhib. concentr. (MIC). The protocol:
as §1, §2

Assay [11] relates to Proteus mirabilis IFO 3849. As to the kind of experiment: MIC, Experiment 1. The conditions noted are these: IFO3849, P. mirabilis IFO 3849, Gram -, read-out: Min. inhib. concentr. (MIC). The protocol: as §1, §2
A further assay concerns Enterobacter cloacae 963. The assay can be described thus: MIC, Experiment 1. Conditions: E. cloacae 963, Gram -, read-out: Min. inhib. concentr. (MIC). The protocol: as §1, §2
The subject of assay [12] is Streptococcus pneumoniae IID 552. The assay can be described thus: MIC, Experiment 1. Conditions: IID552, S. pneumoniae IID 552, Gram +, agar with 5% defibrinated horse blood, read-out: Min. inhib. concentr. (MIC). How it is done: as §1, §2
Assay [13] has as its system Streptococcus pyogenes Su. The assay can be described thus: MIC, Experiment 1. Conditions: S. pyogenes Su, Gram +, agar with 5% defibrinated horse blood, read-out: Min. inhib. concentr. (MIC). The protocol:
as §1, §2

Assay [14] has as its system Streptococcus pyogenes Cook. The assay can be described thus: MIC, Experiment 1. The conditions noted are these: S. pyogenes Cook, Gram +, agar with 5% defibrinated horse blood, read-out: Min. inhib. concentr. (MIC). The protocol:
as §1, §2

In assay [15] the test system is Staphylococcus aureus IID 803. As to the kind of experiment: MIC, Experiment 1. Conditions: IID803, S. aureus IID 803, Gram +, read-out: Min. inhib. concentr. (MIC). The protocol: as §1, §2
The test system of assay [16] is Staphylococcus aureus MS-353. The assay can be described thus: MIC, Experiment 1. Conditions: MS353, S. aureus MS-353, Gram +, read-out: Min. inhib. concentr. (MIC). The protocol: as §1, §2
The test system of assay [17] is Streptococcus pyogenes Sv. The assay can be described thus: MIC, Experiment 1. Conditions: S. pyogenes Sv, Gram +, agar with 5% defibrinated horse blood, read-out: Min. inhib. concentr. (MIC). How it is done: as §1, §2
In assay [18] the test system is Micrococcus luteus ATCC 9341. As to the kind of experiment: MIC, Experiment 1. Conditions: ATCC9341, M. luteus ATCC 9341, Gram +, read-out: Min. inhib. concentr. (MIC). The protocol: as §1, §2
Assay [19] has as its system Staphylococcus aureus FDA 243. As to the kind of experiment: MIC, Experiment 1. Conditions: FDA243, S. aureus FDA 243, Gram +, read-out: Min. inhib. concentr. (MIC). The protocol: as §1, §2
Assay [20] relates to clinically isolated Staphylococcus epidermidis. The assay can be described thus: In vitro antibacterial activity against clinical isolates, Experiment 2. Conditions: Staphylococcus epidermidis, 25 clinical strains S. epidermidis; for MIC50: 50% of strains, read-out: MIC50; for MIC90: 90% of strains, read-out: MIC90. How it is done: The above solutions were then diluted with sterilized distilled water to prepare a standard solution with a concentration of the test compound: 1000 μg/ml each.
For the preculture of each microorganism, there was used as the medium a sensitivity test broth (manufactured by Nissui Seiyaku K. K., Japan), and for the measurement of MIC, there was used a sensitivity test agar medium (manufactured by Nissui Seiyaku K. K.).
The clinically isolates used above were isolated from Nov. 1988 to Jun. 1989 and were obtained from Research Section, Tokyo Clinical Research Center.

The MIC is the least concentration at which growth counts as inhibited. By MIC50 is commonly meant the lowest concentration that inhibits either 50% of growth or 50% of the strains tested, depending on the study. For orientation: MIC90 means the lowest concentration that inhibits either 90% of growth or 90% of the strains tested, depending on the study. Take `CN1Cc2csc3c(C(=O)O)c(=O)c4cc(F)c(N5CCOC(CF)C5)c1c4n23` (stereo not drawn) [Compound (C), 9,1-(Methylimino)methano-7-fluoro-8-(2-fluoromethylmorpholino)-5-oxo-5H-thiazolo[3,2-a]quinoline-4-carboxylic acid]: the MIC is 0.013 µg/mL (≈ 0.0308 µM) in assay [1]; no more than 0.006 µg/mL in [2]; 0.2 µg/mL (≈ 0.475 µM) in assay [3]; 0.013 µg/mL (≈ 0.0308 µM) in assay [4]; no more than 0.006 µg/mL in assay [5]; 0.013 µg/mL (≈ 0.0308 µM) in [6]. For the same compound, the MIC was 0.39 µg/mL (≈ 0.925 µM) in assay [7]; 0.013 µg/mL (≈ 0.0308 µM) in the assay with Bacillus cereus IAM 1029; 0.05 µg/mL (≈ 0.119 µM) in assay [8]; no more than 0.006 µg/mL in assay [9]; 0.013 µg/mL (≈ 0.0308 µM) in assay [10]; 0.2 µg/mL (≈ 0.475 µM) in assay [11]. Moreover, the MIC with Enterobacter cloacae 963 was 0.2 µg/mL (≈ 0.475 µM); in assay [12], 0.025 µg/mL (≈ 0.0593 µM); in assay [13], 0.025 µg/mL (≈ 0.0593 µM); in assay [14], 0.05 µg/mL (≈ 0.119 µM); in assay [15], no more than 0.006 µg/mL; in assay [16], 0.013 µg/mL (≈ 0.0308 µM). In addition, the MIC is 0.05 µg/mL (≈ 0.119 µM) in assay [17], 0.1 µg/mL (≈ 0.237 µM) in assay [18], no more than 0.006 µg/mL in assay [19] and 0.006 to 0.39 µg/mL (≈ 0.0142 to 0.925 µM) in [20]. Moreover, the MIC50 in assay [20] came out at 0.013 µg/mL (≈ 0.0308 µM). Besides, the MIC90 in [20] amounted to 0.39 µg/mL (≈ 0.925 µM).
For the compound `CN1Cc2csc3c(C(=O)O)c(=O)c4cc(F)c(N5CCOC(CCl)C5)c1c4n23` (stereo not drawn) [Compound (D), 9,1-(Methylimino)methano-7-fluoro-8-(2-chloromethylmorpholino)-5-oxo-5H-thiazolo[3,2-a]quinoline-4-carboxylic acid], the minimal inhibitory concentration (MIC) in assay [1] is 0.025 µg/mL (≈ 0.0571 µM); in assay [2], no more than 0.006 µg/mL; in [3], 0.2 µg/mL (≈ 0.457 µM); in assay [4] it was 0.013 µg/mL (≈ 0.0297 µM); in assay [5] it was 0.025 µg/mL (≈ 0.0571 µM); in [6], 0.013 µg/mL (≈ 0.0297 µM). Further, the MIC in assay [7] is 0.39 µg/mL (≈ 0.891 µM); in the assay on Bacillus cereus IAM 1029 it was 0.025 µg/mL (≈ 0.0571 µM); in assay [8], 0.05 µg/mL (≈ 0.114 µM); in assay [9], no more than 0.006 µg/mL; in [10] it was 0.013 µg/mL (≈ 0.0297 µM); in [11], 0.39 µg/mL (≈ 0.891 µM). Also, the MIC in the assay on Enterobacter cloacae 963 is 0.39 µg/mL (≈ 0.891 µM); in [12], 0.05 µg/mL (≈ 0.114 µM); in [13] it was 0.025 µg/mL (≈ 0.0571 µM); in assay [14], 0.05 µg/mL (≈ 0.114 µM); in [15], no more than 0.006 µg/mL; in assay [16] it was 0.013 µg/mL (≈ 0.0297 µM). In addition, the MIC in [17] was 0.05 µg/mL (≈ 0.114 µM); in [18], 0.05 µg/mL (≈ 0.114 µM); in assay [19], no more than 0.006 µg/mL; in [20] it was 0.006 to 0.39 µg/mL (≈ 0.0137 to 0.891 µM). The MIC50 in assay [20] was determined as 0.013 µg/mL (≈ 0.0297 µM). The MIC90 in [20] was 0.2 µg/mL (≈ 0.457 µM).
`COCC1CN(c2c(F)cc3c(=O)c(C(=O)O)c4scc5n4c3c2N(C)C5)CCO1` (stereo not drawn) [Compound (E), 9,1-(Methylimino)methano-7-fluoro-8-(2-methoxymethylmorpholino)-5-oxo-5H-thiazolo[3,2-a]quinoline-4-carboxylic acid]: the MIC in [1] was 0.025 µg/mL (≈ 0.0577 µM); in assay [2], 0.013 µg/mL (≈ 0.03 µM); in [3], 0.2 µg/mL (≈ 0.461 µM); in [4], 0.025 µg/mL (≈ 0.0577 µM); in assay [5] it was 0.025 µg/mL (≈ 0.0577 µM); in [6], no more than 0.006 µg/mL. Moreover, the MIC in assay [7] was 1.56 µg/mL (≈ 3.6 µM); in the assay on Bacillus cereus IAM 1029, 0.025 µg/mL (≈ 0.0577 µM); in [8] it was 0.05 µg/mL (≈ 0.115 µM); in [9], no more than 0.006 µg/mL; in [10], 0.013 µg/mL (≈ 0.03 µM); in assay [11], 0.78 µg/mL (≈ 1.8 µM). Also, the MIC stood at 0.78 µg/mL (≈ 1.8 µM) in the assay on Enterobacter cloacae 963; 0.05 µg/mL (≈ 0.115 µM) in [12]; 0.05 µg/mL (≈ 0.115 µM) in [13]; 0.05 µg/mL (≈ 0.115 µM) in assay [14]; 0.013 µg/mL (≈ 0.03 µM) in [15]; 0.013 µg/mL (≈ 0.03 µM) in assay [16]. For the same compound, the MIC is 0.05 µg/mL (≈ 0.115 µM) in [17], 0.1 µg/mL (≈ 0.231 µM) in [18], no more than 0.006 µg/mL in assay [19] and 0.006 to 0.39 µg/mL (≈ 0.0138 to 0.9 µM) in assay [20]. Further, the MIC50 in assay [20] was 0.05 µg/mL (≈ 0.115 µM). Moreover, the MIC90 in [20] stood at 0.39 µg/mL (≈ 0.9 µM).

The values above are taken from patent US5191079A, “Quinolinecarboxylic acid derivatives” (priority 1990, dated 1993).
